# Patent publication US20230181556A1, “USE OF PSYCHOTROPIC DRUGS FOR THE TREATMENT OF CORONAVIRUS INFECTIONS” (priority 2020, published 2023)
# Tested on: SARS-CoV-2 clinical isolates D614G
# Type: cell-based
row,Structure (SMILES),IC50
1,CN1CCCC(n2nc(Cc3ccc(Cl)cc3)c3ccccc3c2=O)CC1 (centres unmarked) [Azelastine],5.75 µM
2,CC(CN1c2ccccc2Sc2ccccc21)N(C)C (centres unmarked) [Promethazine],9.22 µM
